In ChEMBL document CHEMBL1151951, “Brartemicin, an inhibitor of tumor cell invasion from the actinomycete Nonomuraea sp” (J Nat Prod, 2009):
pIC50: −log10 of the molar value. Active and inactive are the calls of the source. The calls are words filed in the database; no cut-off is given here.

Assays:
[1] = Antiinvasive activity against mouse 26-L5 cells at 1 ug/ml; format: functional
[2] = Antiinvasive activity against mouse 26-L5 cells; format: functional, cell-based
Mus musculus [3] = species: Mus musculus; assay: Cytotoxicity against mouse 26-L5 cells at 10 ug/ml; format: functional, cell-based
Mus musculus [4] = species: Mus musculus; assay: Antiinvasive activity against mouse 26-L5 cells assessed as inhibition of cell migration; format: functional, cell-based

Row | SMILES | Activity [1] [%] | pIC50 [2] | Activity (Mus musculus [3]) | Activity (Mus musculus [4])
1 | O=C(OC[C@H]1O[C@H](O[C@H]2O[C@H](COC(=O)c3ccccc3)[C@@H](O)[C@H](O)[C@H]2O)[C@H](O)[C@@H](O)[C@@H]1O)c1ccccc1 | 51 |  |  | 
2 | O=C(OC[C@H]1O[C@H](O[C@H]2O[C@H](COC(=O)c3cccc(O)c3O)[C@@H](O)[C@H](O)[C@H]2O)[C@H](O)[C@@H](O)[C@@H]1O)c1cccc(O)c1O | 40 |  |  | 
3 | Cc1cc(O)cc(O)c1C(=O)OC[C@H]1O[C@H](O[C@H]2O[C@H](COC(=O)c3c(C)cc(O)cc3O)[C@@H](O)[C@H](O)[C@H]2O)[C@H](O)[C@@H](O)[C@@H]1O [BRARTEMICIN] | 59 | 6.41 | Not toxic | inactive
4 | O=C(OC[C@H]1O[C@H](O[C@H]2O[C@H](COC(=O)c3ccccc3O)[C@@H](O)[C@H](O)[C@H]2O)[C@H](O)[C@@H](O)[C@@H]1O)c1ccccc1O | 35 |  |  | 
